Test results from paper PMC7066191, “Exploiting loss of heterozygosity for allele-selective colorectal cancer chemotherapy” (Nature Communications, 2020).

Experiments:
Assay in all cases: biochemical
Parameters in all cases: scanMAX competition binding; kinase recovered on immobilized ligand quantified by qPCR, per cent of control
Conditions in all cases: read-out: APA (POC)
NEK10 = NEK10 (Homo sapiens, UniProt Q6ZWH5)
Method: (§1) The binding affinities of APA and NAPA were evaluated in the scanMAX^sm Kinase Assay Panel (DiscoverX) at a final concentration of 10 µM. The compounds were tested for steric or allosteric binding to kinases in solution. The kinase was captured from the solution through an immobilized kinase-specific ligand and the kinase recovery was quantified. The amount of recovered kinase in the presence or absence of APA or NAPA was measured by quantitative PCR compared with the kinase capture in absence of the compound. Any compound reducing the binding affinity of a kinase to the respective immobilized ligand was scored as a potential hit, and the binding affinity of the compound toward a kinase is interpreted as the difference between the kinase recovery in the absence and presence of the compound. The inhibitory binding constants (Kd) of APA and NAPA to AURKA were evaluated in a KdELECT Kinase Assay (DiscoverX). […] Data acquisition followed the same methodology as for the scanMAX^sm Kinase Assay Panel. 6 Supplementary Figure 4. Kinome inhibition profiles of APA and its NAT2 metabolite NAPA identifies preferential APA kinase targets and differential binding to AURKA a The human kinome was assessed for binding affinity to APA and NAPA at 10 µM concentration (468 kinases in the scanMAX Kinase Assay Panel, DiscoverX). The family stratification of kinases is shown as a cladogram. Circles visualize the binding affinity of NAPA and APA towards each kinase with a higher intensity of blue corresponding to a higher binding affinity. […] One single data point from one experiment at a concentration 18.5 µM of APA was excluded as an outlier. c Thermal shift assay for human recombinant AURKA in the presence of APA and the selective inhibitor S1451. Melting temperatures were obtained by calculating the first derivative of the tryptophan fluorescence ratio at 350 nm and 330 nm and are shown for AURKA in the presence of S1451 (blue) and APA (yellow). Structural similarities between APA and kinase inhibitors[27] prompted investigation of protein kinases as mediators of APA toxicity. […] To enrich for kinase interactions that could explain the preferential killing of slow NAT2 cells, we compared the binding affinity of each kinase with APA and NAPA, selected 44 targets with preferential binding to APA and excluded kinases non-essential for cell survival and those not expressed in CRC cells (Supplementary Fig. 4A, Supplementary Table 4). […] The growth inhibition of RKO and DLD-1 following siRNA-mediated AURKA knockdown (Figs. 3c, d) reflected the relative efficiency of protein downregulation (Supplementary Fig. 5C, D). […] (Supplementary Fig. 4C). AURKA regulates cell cycle progression through association with other centrosome and spindle-associated proteins. Its activation requires auto-phosphorylation at Thr288 and ensures spindle pole integrity, centrosome duplication as well as adequate chromosomal alignment and segregation, while its inhibition leads to multipolar spindles with acentrosomal poles[28],[31]. […] S1451 reduced the fraction of pAURKA levels by >90% regardless of NAT2 expression (Fig. 3f and Su

HIPK1 = HIPK1 (Homo sapiens, UniProt Q86Z02)
Method: as §1

IRAK3 = IRAK3 (Homo sapiens, UniProt Q9Y616)
Method: as §1

NTRK3 = NTRK3 (Homo sapiens, UniProt Q16288)
Method: as §1

MAP3K11 = MAP3K11 (Homo sapiens, UniProt Q16584)
Method: as §1

CSF1R = CSF1R (Homo sapiens, UniProt P07333)
Method: as §1

GRK4 = GRK4 (Homo sapiens, UniProt P32298)
Method: as §1

HIPK3 = HIPK3 (Homo sapiens, UniProt Q9H422)
Method: as §1

PIP4K2B = PIP4K2B (Homo sapiens, UniProt P78356)
Method: as §1

ZAK = biological target: T1, ZAK (Homo sapiens, UniProt Q9NYL2)
T1 construct: gene MAP3K20
Method: as §1

CLK1 = CLK1 (Homo sapiens, UniProt P49759)
Method: as §1

RPS6KA6_Dom1 = biological target: T2, RPS6KA6_Dom1 (Homo sapiens, UniProt Q9UK32)
T2 construct: gene RPS6KA6; Kin.Dom.1 N-terminal
Method: as §1

FLT4 = FLT4 (Homo sapiens, UniProt P35916)
Method: as §1

EIF2AK4 = EIF2AK4 (Homo sapiens, UniProt Q9P2K8)
Method: as §1

CAMK2A = CAMK2A (Homo sapiens, UniProt Q9UQM7)
Method: as §1

PIP4K2B, sequence (P78356 whole entry): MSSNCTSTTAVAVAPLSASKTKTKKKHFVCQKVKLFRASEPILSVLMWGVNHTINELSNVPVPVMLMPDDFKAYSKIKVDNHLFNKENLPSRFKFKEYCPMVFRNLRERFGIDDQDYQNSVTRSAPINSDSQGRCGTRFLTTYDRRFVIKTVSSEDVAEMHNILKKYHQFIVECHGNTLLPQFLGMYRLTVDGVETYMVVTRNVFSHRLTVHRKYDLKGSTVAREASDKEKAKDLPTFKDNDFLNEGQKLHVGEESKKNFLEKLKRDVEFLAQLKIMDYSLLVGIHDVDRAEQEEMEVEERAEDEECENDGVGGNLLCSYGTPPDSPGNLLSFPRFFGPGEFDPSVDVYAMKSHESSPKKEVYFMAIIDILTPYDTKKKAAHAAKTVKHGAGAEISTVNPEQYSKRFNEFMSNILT
NTRK3, sequence (Q16288 whole entry): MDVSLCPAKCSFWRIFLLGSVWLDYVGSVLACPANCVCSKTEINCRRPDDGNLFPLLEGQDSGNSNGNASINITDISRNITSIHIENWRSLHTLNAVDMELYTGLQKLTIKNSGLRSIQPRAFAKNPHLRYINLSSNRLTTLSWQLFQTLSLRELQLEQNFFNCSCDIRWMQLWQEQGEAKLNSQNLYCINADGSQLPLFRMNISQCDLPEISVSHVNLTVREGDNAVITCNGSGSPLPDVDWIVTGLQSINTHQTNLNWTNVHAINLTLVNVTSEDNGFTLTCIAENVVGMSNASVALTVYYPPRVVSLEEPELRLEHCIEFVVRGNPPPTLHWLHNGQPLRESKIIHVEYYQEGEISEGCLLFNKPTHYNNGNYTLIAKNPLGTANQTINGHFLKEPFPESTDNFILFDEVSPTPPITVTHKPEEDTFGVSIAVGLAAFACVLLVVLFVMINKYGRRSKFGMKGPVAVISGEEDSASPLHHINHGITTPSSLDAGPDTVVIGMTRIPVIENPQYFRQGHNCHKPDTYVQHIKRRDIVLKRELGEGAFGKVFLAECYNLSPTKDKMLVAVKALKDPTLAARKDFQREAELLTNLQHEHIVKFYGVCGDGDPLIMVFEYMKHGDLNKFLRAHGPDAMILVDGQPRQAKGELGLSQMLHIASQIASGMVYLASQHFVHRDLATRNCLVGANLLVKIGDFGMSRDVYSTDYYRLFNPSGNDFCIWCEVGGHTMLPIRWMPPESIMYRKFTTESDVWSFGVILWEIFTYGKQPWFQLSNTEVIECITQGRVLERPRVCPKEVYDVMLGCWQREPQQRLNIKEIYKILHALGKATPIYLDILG
T2 sequence (Q9UK32 whole entry): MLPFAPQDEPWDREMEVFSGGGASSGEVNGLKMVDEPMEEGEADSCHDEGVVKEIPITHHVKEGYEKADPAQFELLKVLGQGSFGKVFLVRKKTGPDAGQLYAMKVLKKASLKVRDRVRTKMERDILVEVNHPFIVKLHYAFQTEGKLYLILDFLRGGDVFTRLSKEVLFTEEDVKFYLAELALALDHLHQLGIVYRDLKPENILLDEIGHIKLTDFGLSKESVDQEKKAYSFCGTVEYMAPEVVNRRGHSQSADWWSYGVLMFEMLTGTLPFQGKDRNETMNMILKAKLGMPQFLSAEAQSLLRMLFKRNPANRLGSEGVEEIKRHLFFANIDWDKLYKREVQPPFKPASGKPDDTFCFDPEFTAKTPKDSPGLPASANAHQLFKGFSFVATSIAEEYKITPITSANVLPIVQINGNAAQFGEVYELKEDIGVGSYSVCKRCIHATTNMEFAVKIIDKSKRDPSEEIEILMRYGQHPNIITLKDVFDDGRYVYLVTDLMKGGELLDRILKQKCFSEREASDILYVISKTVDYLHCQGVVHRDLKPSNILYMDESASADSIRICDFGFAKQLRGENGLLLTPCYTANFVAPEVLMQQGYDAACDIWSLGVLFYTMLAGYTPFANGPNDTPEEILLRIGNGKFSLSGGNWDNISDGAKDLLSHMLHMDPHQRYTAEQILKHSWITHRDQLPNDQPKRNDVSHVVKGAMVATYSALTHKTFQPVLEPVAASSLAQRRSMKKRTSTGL
NEK10, sequence (Q6ZWH5 whole entry): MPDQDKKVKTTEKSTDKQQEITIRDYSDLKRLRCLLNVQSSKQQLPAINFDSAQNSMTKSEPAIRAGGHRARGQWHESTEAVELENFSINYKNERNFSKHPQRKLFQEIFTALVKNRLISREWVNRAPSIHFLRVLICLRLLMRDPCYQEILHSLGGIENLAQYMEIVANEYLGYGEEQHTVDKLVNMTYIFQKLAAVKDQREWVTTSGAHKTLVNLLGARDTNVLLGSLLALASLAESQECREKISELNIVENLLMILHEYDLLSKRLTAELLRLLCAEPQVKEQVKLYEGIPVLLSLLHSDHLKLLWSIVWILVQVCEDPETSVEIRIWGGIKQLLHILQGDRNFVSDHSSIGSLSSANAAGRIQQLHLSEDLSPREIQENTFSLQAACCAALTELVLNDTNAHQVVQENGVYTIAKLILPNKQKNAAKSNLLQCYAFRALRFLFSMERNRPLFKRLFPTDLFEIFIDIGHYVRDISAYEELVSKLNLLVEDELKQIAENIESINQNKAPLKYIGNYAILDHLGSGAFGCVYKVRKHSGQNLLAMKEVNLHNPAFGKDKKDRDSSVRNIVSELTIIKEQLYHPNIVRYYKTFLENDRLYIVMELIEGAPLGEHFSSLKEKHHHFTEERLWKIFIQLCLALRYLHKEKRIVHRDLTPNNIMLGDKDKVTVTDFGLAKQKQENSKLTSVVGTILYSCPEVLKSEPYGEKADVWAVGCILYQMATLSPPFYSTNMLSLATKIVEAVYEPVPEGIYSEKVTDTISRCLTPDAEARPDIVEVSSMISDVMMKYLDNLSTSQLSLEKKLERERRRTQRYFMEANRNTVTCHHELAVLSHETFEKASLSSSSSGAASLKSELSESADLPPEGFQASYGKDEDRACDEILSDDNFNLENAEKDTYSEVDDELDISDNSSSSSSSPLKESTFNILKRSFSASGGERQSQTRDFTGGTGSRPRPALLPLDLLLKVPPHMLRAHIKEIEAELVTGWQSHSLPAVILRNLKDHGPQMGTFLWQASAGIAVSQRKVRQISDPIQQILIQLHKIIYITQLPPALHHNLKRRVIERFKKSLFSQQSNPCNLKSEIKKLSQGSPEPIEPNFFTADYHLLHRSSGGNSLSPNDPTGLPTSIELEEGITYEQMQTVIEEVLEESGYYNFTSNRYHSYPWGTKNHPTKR
FLT4, sequence (P35916 whole entry): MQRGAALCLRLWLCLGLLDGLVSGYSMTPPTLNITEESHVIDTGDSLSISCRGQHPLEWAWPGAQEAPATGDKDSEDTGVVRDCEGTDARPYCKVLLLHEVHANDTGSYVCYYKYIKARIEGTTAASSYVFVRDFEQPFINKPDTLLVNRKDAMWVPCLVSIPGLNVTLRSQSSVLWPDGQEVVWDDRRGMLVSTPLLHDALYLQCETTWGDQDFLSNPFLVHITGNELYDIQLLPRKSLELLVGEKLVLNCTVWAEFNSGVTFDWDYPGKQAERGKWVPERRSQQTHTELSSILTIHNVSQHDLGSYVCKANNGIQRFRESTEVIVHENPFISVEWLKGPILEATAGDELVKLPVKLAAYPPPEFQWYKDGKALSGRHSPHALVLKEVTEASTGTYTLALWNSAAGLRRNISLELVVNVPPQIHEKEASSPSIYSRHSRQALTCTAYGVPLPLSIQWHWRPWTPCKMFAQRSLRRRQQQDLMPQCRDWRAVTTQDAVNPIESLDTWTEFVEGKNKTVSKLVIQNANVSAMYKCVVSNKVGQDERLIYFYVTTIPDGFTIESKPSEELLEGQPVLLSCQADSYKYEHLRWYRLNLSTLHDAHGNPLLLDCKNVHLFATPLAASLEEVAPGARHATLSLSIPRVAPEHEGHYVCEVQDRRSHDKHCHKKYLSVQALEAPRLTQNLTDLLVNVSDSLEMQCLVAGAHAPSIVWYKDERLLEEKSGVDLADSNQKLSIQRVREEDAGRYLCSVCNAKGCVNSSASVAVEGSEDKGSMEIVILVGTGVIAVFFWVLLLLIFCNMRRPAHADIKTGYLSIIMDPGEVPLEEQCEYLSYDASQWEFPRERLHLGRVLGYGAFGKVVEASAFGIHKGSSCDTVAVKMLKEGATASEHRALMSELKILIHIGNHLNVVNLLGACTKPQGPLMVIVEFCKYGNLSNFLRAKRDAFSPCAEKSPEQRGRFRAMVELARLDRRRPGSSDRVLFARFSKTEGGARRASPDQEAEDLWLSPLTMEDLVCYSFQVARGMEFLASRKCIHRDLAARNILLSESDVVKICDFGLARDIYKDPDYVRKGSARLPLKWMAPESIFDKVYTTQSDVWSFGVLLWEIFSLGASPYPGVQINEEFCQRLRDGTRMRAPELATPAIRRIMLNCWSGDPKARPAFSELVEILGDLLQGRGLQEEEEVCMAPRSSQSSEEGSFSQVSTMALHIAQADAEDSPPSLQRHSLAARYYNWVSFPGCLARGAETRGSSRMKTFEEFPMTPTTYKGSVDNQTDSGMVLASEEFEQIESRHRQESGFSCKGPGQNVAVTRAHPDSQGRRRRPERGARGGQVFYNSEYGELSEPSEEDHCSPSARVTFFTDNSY
CLK1, sequence (P49759 whole entry): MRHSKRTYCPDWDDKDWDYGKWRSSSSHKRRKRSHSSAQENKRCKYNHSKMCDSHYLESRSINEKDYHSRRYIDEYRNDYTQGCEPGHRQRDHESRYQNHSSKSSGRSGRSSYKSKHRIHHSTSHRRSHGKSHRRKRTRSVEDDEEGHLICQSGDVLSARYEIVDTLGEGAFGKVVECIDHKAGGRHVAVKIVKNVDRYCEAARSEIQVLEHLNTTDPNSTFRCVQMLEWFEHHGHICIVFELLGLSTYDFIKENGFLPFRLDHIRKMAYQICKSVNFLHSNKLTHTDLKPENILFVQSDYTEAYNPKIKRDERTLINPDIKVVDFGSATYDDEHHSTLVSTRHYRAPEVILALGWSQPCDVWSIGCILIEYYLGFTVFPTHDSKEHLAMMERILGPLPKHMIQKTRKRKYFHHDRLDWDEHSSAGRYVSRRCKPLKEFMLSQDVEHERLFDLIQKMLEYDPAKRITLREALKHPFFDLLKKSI

Q: With `COc1cc(Nc2cncc(-c3ccc(N)cc3)n2)cc(OC)c1OC` [APA, 6-(4-aminophenyl)-N-(3,4,5-trimethoxyphenyl)pyrazin-2-amine] as the compound, how does the remaining binding at 10 µM (NEK10) read?
A: 37%

Q: What about the remaining binding at 10 µM (HIPK1) of the same compound?
A: 12%

Q: And the remaining binding at 10 µM (IRAK3)?
A: 46%

Q: What about the remaining binding at 10 µM (NTRK3) of the same compound?
A: 11%

Q: And the remaining binding at 10 µM (MAP3K11)?
A: 22%

Q: What about the remaining binding at 10 µM (CSF1R) of the same compound?
A: 3.9%

Q: And the remaining binding at 10 µM (GRK4)?
A: 15%

Q: What about the remaining binding at 10 µM (HIPK3) of the same compound?
A: 42%

Q: What about the remaining binding at 10 µM (PIP4K2B) of the same compound?
A: 20%

Q: And the remaining binding at 10 µM (ZAK)?
A: 22%

Q: What about the remaining binding at 10 µM (CLK1) of the same compound?
A: 25%

Q: And the remaining binding at 10 µM (RPS6KA6_Dom1)?
A: 58%

Q: And the remaining binding at 10 µM (FLT4)?
A: 35%

Q: What about the remaining binding at 10 µM (EIF2AK4) of the same compound?
A: 38%

Q: And the remaining binding at 10 µM (CAMK2A)?
A: 59%
